US8791094B2, “Treatment of prostate cancer” (Tokai Pharmaceuticals, Inc., priority 2009, dated 2014)

Legend:
[1] = tested on: LAPC4 prostate cancer cell tumors; assay: Growth of human prostate cancer xenografts in SCID mice; type: in vivo
Method: Xenografts of LAPC4 prostate cancer cell tumors were implanted in SCID mice. […] Tumor size was measured weekly and compared with control mice that received vehicle, Casodex® or castration only.

CYP17 = molecular target: T1, CYP17 (Homo sapiens, UniProt P05093); assay: Inhibition of lyase activity (CYP17); type: biochemical; settings: CYP17 expressed by transfected E. coli; radiolabelled 17α-hydroxypregnenolone substrate
T1 construct: made in house; host or cells: E. coli
T1 sequence (P05093 1-508): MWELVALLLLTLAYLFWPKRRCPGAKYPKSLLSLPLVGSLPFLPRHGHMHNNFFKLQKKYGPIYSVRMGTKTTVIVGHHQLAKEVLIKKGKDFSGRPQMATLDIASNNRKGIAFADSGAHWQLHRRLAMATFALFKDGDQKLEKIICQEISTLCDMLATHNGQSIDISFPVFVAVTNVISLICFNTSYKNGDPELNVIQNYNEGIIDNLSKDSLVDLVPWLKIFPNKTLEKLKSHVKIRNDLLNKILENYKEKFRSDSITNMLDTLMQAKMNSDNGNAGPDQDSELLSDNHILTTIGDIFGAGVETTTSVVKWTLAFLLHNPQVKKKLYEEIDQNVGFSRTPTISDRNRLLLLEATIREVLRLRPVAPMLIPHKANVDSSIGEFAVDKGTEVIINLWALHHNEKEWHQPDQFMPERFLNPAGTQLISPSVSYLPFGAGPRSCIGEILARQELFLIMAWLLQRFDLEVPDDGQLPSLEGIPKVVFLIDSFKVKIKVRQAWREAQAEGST
Method: Intact CYP17 expressed by transfected E. coli was isolated and purified as an enzyme source. Radiolabelled 17α-hydroxypregnenolone as the substrate. CYP17 activity was measured by the amount of tritiated acetic acid formed during the cleavage of the C-21 side chain of the substrate.

[2] = Chronic administration toxicity in rats; type: in vivo; settings: administered chronically to rats
LAPC-4 = assay: Inhibition of testosterone-induced proliferation, LAPC-4; type: cell-based, human; settings: LAPC-4 stimulated with 1 nM DHT
Method: (§1) Human prostate cancer cell lines (LNCaP and LAPC-4) were grown in culture and stimulated with 1 nM dihydrotestosterone (DHT). This concentration of DHT stimulated the proliferation of prostate cancer cells.

cytochrome P450 systems = assay: In vitro safety testing: cytochrome P450 systems; type: in vitro ADME
in vivo = settings: dog
Excerpt: On an AUC basis the human starting dose is predicted to be 16 times lower than the NOAEL dose in dogs.

off-target receptors = assay: In vitro safety testing: off-target receptors; type: binding
PSA = assay: Clinical study in chemotherapy naive CRPC: PSA response; type: in vivo, human
Method: The primary efficacy endpoint is the percent of subjects with 50% or greater decrease in PSA from baseline to 12 weeks, or PSA nadir (whichever comes first). Frequency and percentage are calculated for each treatment group. The primary analysis is also repeated using the PP Population.
A clinical study was performed according to the protocol of Example 6. Compound (1) was administered to four cohorts, each in a different amount.

[3] = Oral bioavailability (nonclinical); settings: in vivo
[4] = In vitro safety testing: genotoxicity
LNCaP = assay: Inhibition of testosterone-induced proliferation, LNCaP; type: cell-based, human; settings: LNCaP stimulated with 1 nM DHT
Method: as §1

[5] = Nonclinical safety evaluation (cell-based and animal models); settings: nonclinical data
Excerpt: This is a first-in-man trial of Compound 1 and potential toxic effects in humans are not yet fully known. […] An additional known class effect, apparent mineralocorticoid excess (AME), was not seen in nonclinical studies. This trial has been designed with the adverse nonclinical findings, theoretical MOA, and consideration of known class effect issues in mind. The trial evaluates potential clinical benefit and provides proof of concept while minimizing risk to subjects.

With `C[C@]12CC[C@H](O)CC1=CCC1C2CC[C@]2(C)C(n3cnc4ccccc43)=CCC12` (stereo partly drawn) [Compound (1), 3-β-Hydroxy-17-(1H-benzimidazol-1-yl)androsta-5,16-diene] the tumor growth ([1]; 50 mg/kg BW SC twice daily, compared with castration) was “comparable or more pronounced decrease in tumor growth compared to castration”, the “size of androgen dependent human prostate tumors” value ([1]; SCID mouse models, levels corresponding to human subcutaneous doses of 140, 280, and 560 mg) was “dramatic reduction” and the IC50 (CYP17) was 300 nM. For the same compound, the toxic responses [2] was “fails to elicit toxic responses”, the “inhibition of testosterone induced proliferation” value (LAPC-4) was “dose-dependent inhibition” and the “interference with activity of cytochrome P450 systems known to metabolize many drugs” value (cytochrome P450 systems) was “does not interfere”. For the same compound, the NOAEL (in vivo) was 150 mg/kg, the “interaction with off-target receptors” value (off-target receptors) was “only at high micromolar concentrations” and the “Percentage of Patients With a PSA Response” value (from here on “Percentage”) (PSA; Cohort 1, 650 mg/day, 6 patients treated) was 67% (4). For the same compound, the “Percentage” value (PSA; Cohort 2, 975 mg/day, 6 patients treated) was 67% (4), the “Percentage” value (PSA; Cohort 3, 1300 mg/day, 6 patients treated) was 83% (5) and the “Percentage” value (PSA; Cohort 4, 1950 mg/day, 7 patients treated) was 71% (5). The oral bioavailability [3] was “orally bioavailable”, the genotoxicity [4] was “does not have genotoxicity” and the “inhibition of testosterone induced proliferation” value (LNCaP) was “dose-dependent inhibition”. The “only safety signal seen” value [5] was “hepatoxicity” and the “toxicity in cell-based and animal models” value [5] was “minimal toxicity”.
